In US20240254095A1, “NMDA Receptor Antagonist and Use Thereof” (priority 2021, published 2024) one finds inhibition and current inhibitory percentages data, which are given here for 31 compounds.

Each structure is given as a SMILES string. Structures can show the parent of a compound that is named as a salt. Where two headings read alike, the source gives them in different places.

The test has as its target T1, human NMDA receptors GluN1 and GluN2A subunits (GluN2A-containing NMDAR) (Homo sapiens, UniProt Q05586+Q12879).
T1 construct: expressed in transfected cells; host or cells: HEK293 cells, transient liposome transfection of TRE-GluN1-GluN2A, tTA and pCAG-EGFP
Description: cell-based. The protocol: On the day before transfection, HEK293 cells were seeded in a 24-well plate with a 10 mm glass sheet, which was coated with polylysine in advance to increase the adhesion capacity of the cells. The plate was added with DMEM medium containing 10% FBS and incubated at 37° C., in 5% CO2 incubator. When the cell fusion reached 60%-70% after 18-24 hours, the plasmid cDNAs containing TRE-GluN1-GluN2A of human GluN1 and GluN2A, tTA, and pCAG-EGFP were transfected into HEK293 by liposome transfection (TRE-GluN1-GluN2A:tTA:pCAG-EGFP is 0.2 μg:0.2 μg:0.02 μg). Before transfection, anew DMEM medium was changed and added with 1 μg/mL Dox (doxycycline) to induce stable expression in the medium, and added with 100 μM D-APV and 10 mM MgCl2 to avoid cell excitatory toxicity caused by NMDAR overexpression. Cells with green fluorescence were selected for electrophysiological recording after transfection for about 24 h.
A glass plate seeded with HEK293 cells was placed in a recording bath and perfused with the extracellular fluid at a rate of 4 mL/min (NaCl 140 mM, KCl 2.8 mM, HEPES 10 mM, CaCl2 1 mM, glycine 0.1 mM, pH 7.2). The channels of the ALA-VC^3 eight-channel pressure perfusion system were filled with extracellular fluid for washing, extracellular fluid containing glutamic acid (100 μM), and extracellular fluid containing glutamic acid and compound to be tested, respectively, with a drop rate of about 1 drop/sec and 10 μL/drop. HEK293 cells with moderate green fluorescence intensity and good adhesion were selected under a fluorescence microscope for recording. The microglass tube of the perfusion system was placed about ten cells away from the cells to be recorded, and the drug was sprayed to the cell surface under the pressure of air (0.02 MPa). The glass electrode was prepared by drawing with a microelectrode drawing instrument with a resistance of 4-6 MΩ and filled with electrode liquid (CsCl 125 mM, HEPES 10 mM, EGTA 11 mM). The microelectrode manipulator was used to slowly push the glass electrode towards the cells. The electrode was attached to the cell membranes and applied with negative pressure, so that a high-resistance seal of more than 1 GΩ was formed between the electrode tip and the cell membrane, and then negative pressure was given to suck through the cell membrane to form a whole-cell recording mode. After the formation of whole-cell recording mode, the cell membrane potential was clamped at −70 mV. The extracellular fluid containing 100 μM glutamic acid, the extracellular fluid containing 100 μM glutamic acid and the compound to be tested, and the extracellular fluid were sprayed to the cell membrane surface sequentially through the perfusion system for 10 s, 20 s, and 10 s to record the NMDA receptor-mediated current and evaluate the inhibitory effect of the compound on GluN2A-containing NMDAR. The experimental process was controlled by pCLAMP 10.6, and the Digidata 1440A digital-to-analog converter was used to complete the generation of stimulus signal and the acquisition of feedback signal.
The ordinate in the figure is the normalized current ratio, which represents the ratio of the current mediated by NMDAR after administration of ketamine and the compound at a concentration of 10 μM to the current mediated by NMDAR before administration. […] Ketamine was used as a positive control.
The inhibitory percentages of the compound according to the present disclosure on NMDAR-mediated current=[…]/NMDAR mediated-current before administration*100%.

Setting [1] is: NMDAR-mediated current, HEK293 cells expressing human GluN1/GluN2A, 100 μM glutamic acid, clamped at −70 mV, compound 10 μM, read-out: current inhibitory percentages.

T1 sequence (Q12879 23-1464, other chains not shown): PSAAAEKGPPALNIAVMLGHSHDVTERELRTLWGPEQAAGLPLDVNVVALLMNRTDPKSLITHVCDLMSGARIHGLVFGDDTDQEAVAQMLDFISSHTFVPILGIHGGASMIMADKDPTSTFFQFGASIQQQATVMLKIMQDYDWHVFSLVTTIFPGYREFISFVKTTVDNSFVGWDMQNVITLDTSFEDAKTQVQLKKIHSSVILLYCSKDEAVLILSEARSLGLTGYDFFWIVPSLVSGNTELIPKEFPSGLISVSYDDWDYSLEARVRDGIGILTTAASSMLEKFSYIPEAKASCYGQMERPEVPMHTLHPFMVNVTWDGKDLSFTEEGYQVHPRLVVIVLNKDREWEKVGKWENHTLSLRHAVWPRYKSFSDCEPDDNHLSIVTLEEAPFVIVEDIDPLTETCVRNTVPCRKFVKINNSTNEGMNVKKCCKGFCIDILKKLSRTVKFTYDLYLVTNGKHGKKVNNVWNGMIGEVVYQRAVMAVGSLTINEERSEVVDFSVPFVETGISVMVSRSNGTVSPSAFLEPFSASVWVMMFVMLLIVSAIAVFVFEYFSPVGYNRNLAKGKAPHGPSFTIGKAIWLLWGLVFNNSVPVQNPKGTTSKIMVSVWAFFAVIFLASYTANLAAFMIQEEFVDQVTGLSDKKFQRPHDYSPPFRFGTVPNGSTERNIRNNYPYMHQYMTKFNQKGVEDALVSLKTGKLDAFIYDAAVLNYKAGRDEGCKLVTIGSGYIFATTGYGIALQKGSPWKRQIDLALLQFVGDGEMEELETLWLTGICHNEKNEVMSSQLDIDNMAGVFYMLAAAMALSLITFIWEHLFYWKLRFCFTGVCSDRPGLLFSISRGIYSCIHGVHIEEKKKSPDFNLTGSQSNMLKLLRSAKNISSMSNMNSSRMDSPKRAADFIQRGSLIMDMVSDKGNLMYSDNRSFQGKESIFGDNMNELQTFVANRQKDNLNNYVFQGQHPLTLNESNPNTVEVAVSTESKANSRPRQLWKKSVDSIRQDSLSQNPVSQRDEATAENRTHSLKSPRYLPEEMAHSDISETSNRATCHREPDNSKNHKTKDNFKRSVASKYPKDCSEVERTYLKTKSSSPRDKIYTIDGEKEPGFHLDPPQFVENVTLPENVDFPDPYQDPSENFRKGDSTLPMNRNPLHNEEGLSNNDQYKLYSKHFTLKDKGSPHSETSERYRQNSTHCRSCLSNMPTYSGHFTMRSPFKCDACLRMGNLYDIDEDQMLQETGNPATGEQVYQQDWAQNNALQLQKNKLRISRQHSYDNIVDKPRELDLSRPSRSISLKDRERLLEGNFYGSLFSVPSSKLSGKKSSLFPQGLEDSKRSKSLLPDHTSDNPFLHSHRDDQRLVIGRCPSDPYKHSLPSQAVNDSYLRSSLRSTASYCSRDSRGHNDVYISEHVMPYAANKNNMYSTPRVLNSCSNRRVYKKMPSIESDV

In the case of `c1ccc(C23CCCCC2OCCN3)cc1` (stereo not shown) [Compound 1, 4a-phenyloctahydro-2H-benzo[b][1,4]oxazine hydrochloride], under setting [1], the inhibition at 10 µM turned out to be 115%. For the compound `COc1ccccc1C12CCCCC1OCCN2` (stereo not shown) [Compound 2, 4a-(2-methoxyphenyl)octahydro-2H-benzo[b][1,4]oxazine hydrochloride], the inhibition at 10 µM under setting [1] is 56%. `Fc1cccc(C23CCCCC2OCCN3)c1` (stereo not shown) [Compound 3, 4a-(3-fluorophenyl)octahydro-2H-benzo[b][1,4]oxazine hydrochloride]: the inhibition at 10 µM under setting [1] turned out to be 21.2%. On the same count and under the same terms, with `Fc1ccc(C23CCCCC2OCCN3)cc1` (stereo not shown) [Compound 4, 4a-(4-fluorophenyl)octahydro-2H-benzo[b][1,4]oxazine formate] the figure was 83.7%; with `Fc1cccc(C23CCCCC2OCCN3)c1F` (stereo not shown) [Compound 5, 4a-(2,3-difluorophenyl)octahydro-2H-benzo[b][1,4]oxazine formate], 54.5%; with `CC1CCC2OCCNC2(c2ccccc2)C1` (stereo not shown) [Compound 7, 6-methyl-4a-phenyloctahydro-2H-benzo[b][1,4]oxazine formate], 86.4%.

On to `CCC1CCC2OCCNC2(c2ccccc2)C1` (stereo not shown) [Compound 8, 6-ethyl-4a-phenyloctahydro-2H-benzo[b][1,4]oxazine formate], for which the inhibition at 10 µM under setting [1] was found to be 28.9%.

Take `Cc1cccc(C23CCCCC2OCCN3)c1` (stereo not shown) [Compound 10, 4a-(3-methylphenyl)octahydro-2H-benzo[b][1,4]oxazine formate]: the inhibition at 10 µM under setting [1] is 98.3%. Take `Cc1ccccc1C12CCCCC1OCCN2` (stereo not shown) [Compound 12, 4a-(2-methylphenyl)octahydro-2H-benzo[b][1,4]oxazine formate]: under setting [1], the inhibition at 10 µM was 33.7%.

For the compound `Cc1ccc(C23CCCCC2OCCN3)cc1` (stereo not shown) [Compound 14, 4a-(4-methylphenyl)octahydro-2H-benzo[b][1,4]oxazine formate], under setting [1], the inhibition at 10 µM came out at 45.2%. On the same count and under the same terms, with `CC1CCCC2(c3ccccc3)NCCOC12` (stereo not shown) [Compound 16, 8-methyl-4a-phenyloctahydro-2H-benzo[b][1,4]oxazine formate] the figure was 107%; with `CC1CCCC2OCCNC12c1ccccc1` (stereo not shown) [Compound 17, 5-methyl-4a-phenyloctahydro-2H-benzo[b][1,4]oxazine formate], 86.6%. Same read-out and setting: with `CC1CCC2(c3ccccc3)NCCOC2C1` (stereo not shown) [Compound 18, 7-methyl-4a-phenyloctahydro-2H-benzo[b][1,4]oxazine formate] the figure was 84.4%; with `CN1CCOC2CCCCC21c1ccccc1` (stereo not shown) [Compound 19, 4-methyl-4a-phenyloctahydro-2H-benzo[b][1,4]oxazine hydrochloride], 17.8%.

In turn, `CC1(C)CNC2(c3ccccc3)CCCCC2OC1.Cl` (stereo not shown) [Compound 20, 3,3-dimethyl-5a-phenyldecahydrobenzo[b][1,4]olanzapine hydrochloride] gave a current inhibitory percentages of 64.86%.

As to `COc1cccc(C23CCCCC2OCCN3)c1` (stereo not shown) [Compound 21, 4a-(3-methoxyphenyl)octahydro-2H-benzo[b][1,4]oxazine hydrochloride], the inhibition at 10 µM under setting [1] came to 71.5%.

`FC(F)(F)Oc1cccc(C23CCCCC2OCCN3)c1` (stereo not shown) [Compound 22, 4a-(3-(trifluoromethoxy)phenyl)octahydro-2H-benzo[b][1,4]oxazine hydrochloride]: the inhibition at 10 µM under setting [1] was 45.8%.

In the case of `FC(F)(F)c1ccc(C23CCCCC2OCCN3)cc1` (stereo not shown) [Compound 23, 4a-(4-(trifluoromethyl)phenyl)octahydro-2H-benzo[b][1,4]oxazine hydrochloride], the inhibition at 10 µM under setting [1] worked out at 9.25%.

Turning to `Cc1cccc(C)c1C12CCCCC1OCCN2` (stereo not shown) [Compound 24, 4a-(2,6-dimethylphenyl)octahydro-2H-benzo[b][1,4]oxazine hydrochloride], the inhibition at 10 µM under setting [1] was determined as 73.7%. Still for that read-out and setting: with `CC(C)(C)c1ccc(C23CCCCC2OCCN3)cc1` (stereo not shown) [Compound 25, 4a-(4-(tertbutyl)phenyl)octahydro-2H-benzo[b][1,4]oxazine hydrochloride] the figure was 11.2%; with `Clc1cccc(C23CCCCC2OCCN3)c1Cl` (stereo not shown) [Compound 26, 4a-(2,3-dichlorophenyl)octahydro-2H-benzo[b][1,4]oxazine hydrochloride], 92%. Still for that read-out and setting: with `CC(C)c1ccccc1C12CCCCC1OCCN2` (stereo not shown) [Compound 27, 4a-(2-isopropylphenyl)octahydro-2H-benzo[b][1,4]oxazine hydrochloride] the figure was 85.6%. With `Cc1ccc(C)c(C23CCCCC2OCCN3)c1` (stereo not shown) [Compound 28, 4a-(2,5-dimethylphenyl)octahydro-2H-benzo[b][1,4]oxazine hydrochloride], the inhibition at 10 µM under setting [1] was found to be 87.8%. On the same count and under the same terms, with `Fc1cccc(C23CCCCC2OCCN3)c1Cl` (stereo not shown) [Compound 29, 4a-(2-chloro-3-fluorophenyl)octahydro-2H-benzo[b][1,4]oxazine hydrochloride] the figure was 85.7%.

As to `Fc1ccc(C23CCCCC2OCCN3)cc1F` (stereo not shown) [Compound 30, 4a-(3,4-difluorophenyl)octahydro-2H-benzo[b][1,4]oxazine hydrochloride], the inhibition at 10 µM under setting [1] stood at 86.6%. For `CC1(C)CCC2OCCNC2(c2ccccc2)C1` (stereo not shown) [Compound 31, 6,6-dimethyl-4a-phenyloctahydro-2H-benzo[b][1,4]oxazine hydrochloride], for the setting “HEK293, read-out: current inhibitory percentages”, the inhibition at 10 µM was determined as 71.6%. Turning to `Fc1ccc(Cl)c(C23CCCCC2OCCN3)c1` (stereo not shown) [Compound 32, 4a-(2-chloro-5-fluorophenyl)octahydro-2H-benzo[b][1,4]oxazine hydrochloride], the inhibition at 10 µM under setting [1] came out at 102%. Take `CCOc1cccc(C23CCCCC2OCCN3)c1` (stereo not shown) [Compound 33, 4a-(3-ethoxyphenyl)octahydro-2H-benzo[b][1,4]oxazine hydrochloride]: the inhibition at 10 µM under setting [1] amounted to 76.4%. Same read-out and setting: for `COc1ccc(C23CCCCC2OCCN3)c(Cl)c1` (stereo not shown) [Compound 34, 4a-(2-chloro-4-methoxyphenyl)octahydro-2H-benzo[b][1,4]oxazine hydrochloride] the value was 48.6%; for `Fc1cccc(Cl)c1C12CCCCC1OCCN2` (stereo not shown) [Compound 36, 4a-(2-chloro-6-fluorophenyl)octahydro-2H-benzo[b][1,4]oxazine hydrochloride], 42.5%.

Regarding `Cc1cscc1[C@]12CCCC[C@H]1OCCN2` [Compound 40, (4aR,8aR)-4a-(4-methyl-3-thiophenyl)octahydro-2H-benzo[b][1,4]oxazine hydrochloride], the inhibition at 10 µM under setting [1] turned out to be 89.3%.
